Where “and” joins values, the source holds several entries; their conditions need not be identical. Equal entries are not always repeated.
Legend:
[1] = tested on: IFNAR1 cell surface levels in MCF10A BRCC45 R137A cells; test: MCF10A BRCC45 R137A IFNAR1 cell surface levels (FACS); type: cell-based, human
Procedure: (§1) To study the direct effect of BRISC DUB inhibitors, IFNAR1 surface levels were measured using flow cytometry (FACS) analysis. For this purpose, MCF10A WT and MCF10A BRCC45 KO cells expressing […]
(§2) BRCC45 WT or BRCC45 R137A were used. […]
(§3) minutes prior to the addition of 50 ng/mL of hIFN-Iα for various time points (45 minutes and 90 minutes).
(§4) After IFN treatment, cells were dissociated from plate using cell dissociation Buffer (ThermoFisher Scientific, #13150016) and were stained with LIVE/DEAD™ Fixable Violet Dead Cell Stain Kit, for 405 nm excitation (ThermoFisher Scientific, #L34963) for 30 minutes, as per the kit protocol. The cells were then washed using FACS buffer (DPBS, 1% BSA, 2 mM EDTA, 0.09% sodium azide) and transferred to 96-well round bottom plates. Resuspended cells were divided into three repeats for each sample, each was surface stained for 1 hour at 4 °C with: 1. Human IFN-alpha/beta R1 Antibody (R&D systems, #MAB245), 2. Mouse IgG1 Isotype Control (R&D systems, #MAB002), 3. FACS buffer (control cells).
(§5) Following incubation, cells were washed once with FACS buffer and were labelled for 30 minutes at 4 °C with either Biotin-SP-conjugated AffiniPure Donkey Anti-Mouse IgG (H+L) (Jackson Immunoresearch Laboratories) for samples 1 and 2 or with FACS buffer for sample 3. Cells were washed twice with FACS buffer and were labelled for 15 minutes at 4 °C with either R-Phycoerythrin-conjugated Streptavidin (Jackson Immunoresearch Laboratories) for samples 1 and 2 or with FACS buffer for sample 3. Cells were washed 3 times with FACS buffer and were analysed by FACS (MACSQuant, Miltenyi Biotec). For each sample from group 1 the Geo mean fluorescence intensity (MFI) of its isotype sample was reduced. IFNAR1 cell surface percentage was calculated by 100*(MFI

[2] = tested on: CXCL10 secretion in SSc PBMCs; test: SSc PBMC CXCL10 ELISA, unstimulated; type: cell-based, human
Procedure: PBMCs in vitro experiments
Peripheral blood mononuclear cells (PBMCs) from healthy and SSc donors were separated using density gradient method (Leucosep™, Greiner Bio-One International) from EDTA anticoagulated peripheral blood; isolated cells were washed twice by PBS. PBMCs were then incubated in RPMI1640 […]
For healthy PBMCs, cells were stimulated with 20 ng/mL of IFN (+/- compounds or DMSO). For SSc PBMCs, cells were in basal conditions with no additional IFN stimulation. Cells were centrifuged at 300 g for 10 minutes. Supernatant was removed and subjected to R&D Systems DY266 Human CXCL10/IP-10 DuoSet ELISA (Biotechne) in duplicates, according to manufacturer’s guidance. Concentration of CXCL10 was determined according to a 4-parameter

[3] = tested on: IFNAR1 cell surface levels in MCF10A BRCC45 WT cells; test: MCF10A BRCC45 WT IFNAR1 cell surface levels (FACS); type: cell-based, human
Procedure: as §1, §2, §3, §4, §5

BRISC = molecular target: T1, BRISC (Homo sapiens, UniProt P46736+Q15018+Q9NXR7); test: Michaelis–Menten analysis of BRISC inhibition; type: biochemical
T1 construct: made in house; host or cells: Spodoptera frugiperda (Sf9) insect cells, MultiBac
Procedure: IQF assays were performed in DUB reaction buffer containing 50 mM HEPES–NaOH pH 7.0, 100 mM NaCl, 0.1 mg ml^−1 BSA, 1 mM DTT and 0.03% v/v Brij-35. […] The final concentration of BRISC WT, all BRISC mutants, HsBRISCΔLoop, MmBRISC and DrBRISCΔNΔC was 1 nM. Other enzymes were tested at the following concentrations: 5 nM ARISC (FL), 10 nM CfBRISCΔNΔC, 250 nM AMSH* (ref. [43]), 500 nM USP2 and 1 μM trypsin (Sigma, 9002-07-7). For Michaelis–Menten experiments, 1 nM BRISC with 0–1 μM IQF K63-linked diubiquitin substrate was used. Michaelis–Menten analyses and Lineweaver–Burk plots were calculated using GraphPad Prism (version 9.0).

## O=C(NC1C2CNCC21)c1nn(C(=O)c2c(Cl)cccc2Cl)cc1NC(=O)c1c(Cl)cccc1Cl (centres unmarked) [FX-171-C]
[1]; BRCC45 KO + BRCC45 R137A, IFN + compound, No IFN about 100
  IFNAR1 cell surface levels (Fig. 5g): 49.6989 and 47.3367 and 48.4484
[1]; BRCC45 R137A cells, IFN 50 ng/ml, 5 μM, 90 min
  IFNAR1 cell surface levels: not reduced
[2]; SSc donor ID 68
  CXCL10, SSc donor PBMCs (Fig. 6d): 72.6224
[2]; SSc donor ID 78
  CXCL10, SSc donor PBMCs (Fig. 6d): 6.824
[2]; SSc donor ID 79
  CXCL10, SSc donor PBMCs (Fig. 6d): 0
[2]; SSc donor ID 142
  CXCL10, SSc donor PBMCs (Fig. 6d): 86.6599
[2]; SSc donor ID 205
  CXCL10, SSc donor PBMCs (Fig. 6d): 108.154
[2]; SSc donor ID 219
  CXCL10, SSc donor PBMCs (Fig. 6d): 48.1818
[2]; SSc donor ID 244
  CXCL10, SSc donor PBMCs (Fig. 6d): 0
[2]; basal, nonstimulated SSc PBMCs, 16 h
  CXCL10 secretion: reduced CXCL10 secretion
[3]; BRCC45 KO + BRCC45 WT, IFN + compound, No IFN about 100
  IFNAR1 cell surface levels (Fig. 5g): 39.3476 and 40.435 and 39.71
[3]; BRCC45 WT cells, IFN 50 ng/ml, 5 μM, 90 min
  IFNAR1 cell surface levels: reduction in IFNAR1 cell surface levels
BRISC; di-Ub-TAMRA 31.2 nM, inhibitor 48 nM
  Initial velocity (FU/min): 121.5 FU/min and 126.3 FU/min and 146.6 FU/min
BRISC; di-Ub-TAMRA 31.2 nM, inhibitor 195 nM
  Initial velocity (FU/min): 104.4 FU/min and 118.9 FU/min and 118.7 FU/min
BRISC; di-Ub-TAMRA 31.2 nM, inhibitor 781 nM
  Initial velocity (FU/min): 76.24 FU/min and 88.16 FU/min and 98.75 FU/min
BRISC; di-Ub-TAMRA 31.2 nM, inhibitor 3.12 μM
  Initial velocity (FU/min): 58.53 FU/min and 46.27 FU/min and 64.26 FU/min
BRISC; di-Ub-TAMRA 31.2 nM, inhibitor 12.5 μM
  Initial velocity (FU/min): 38.22 FU/min and 44.65 FU/min and 65.69 FU/min
BRISC; di-Ub-TAMRA 62.5 nM, inhibitor 48 nM
  Initial velocity (FU/min): 182.7 FU/min and 137.5 FU/min and 123.2 FU/min
BRISC; di-Ub-TAMRA 62.5 nM, inhibitor 195 nM
  Initial velocity (FU/min): 166.2 FU/min and 105.9 FU/min and 106.4 FU/min
BRISC; di-Ub-TAMRA 62.5 nM, inhibitor 781 nM
  Initial velocity (FU/min): 126.7 FU/min and 95.78 FU/min and 99.98 FU/min
BRISC; di-Ub-TAMRA 62.5 nM, inhibitor 3.12 μM
  Initial velocity (FU/min): 70.11 FU/min and 76.58 FU/min and 69.67 FU/min
BRISC; di-Ub-TAMRA 62.5 nM, inhibitor 12.5 μM
  Initial velocity (FU/min): 34.93 FU/min and 52.19 FU/min and 58.9 FU/min
BRISC; di-Ub-TAMRA 62.5 nM, inhibitor 50 μM
  Initial velocity (FU/min): 28.22 FU/min and 40.49 FU/min and 46.74 FU/min
BRISC; di-Ub-TAMRA 125 nM, inhibitor 48 nM
  Initial velocity (FU/min): 467.2 FU/min and 386.6 FU/min and 434.5 FU/min
BRISC; di-Ub-TAMRA 125 nM, inhibitor 195 nM
  Initial velocity (FU/min): 414.6 FU/min and 331.3 FU/min and 418.4 FU/min
BRISC; di-Ub-TAMRA 125 nM, inhibitor 781 nM
  Initial velocity (FU/min): 304.6 FU/min and 276.4 FU/min and 303.4 FU/min
BRISC; di-Ub-TAMRA 125 nM, inhibitor 3.12 μM
  Initial velocity (FU/min): 173.8 FU/min and 175.1 FU/min and 170.4 FU/min
BRISC; di-Ub-TAMRA 125 nM, inhibitor 12.5 μM
  Initial velocity (FU/min): 92.02 FU/min and 100.3 FU/min and 111.4 FU/min
BRISC; di-Ub-TAMRA 125 nM, inhibitor 50 μM
  Initial velocity (FU/min): 36.3 FU/min and 46.67 FU/min and 63.46 FU/min
BRISC; di-Ub-TAMRA 250 nM, inhibitor 48 nM
  Initial velocity (FU/min): 794.1 FU/min and 722.2 FU/min and 770.5 FU/min
BRISC; di-Ub-TAMRA 250 nM, inhibitor 195 nM
  Initial velocity (FU/min): 732.8 FU/min and 688 FU/min and 641.2 FU/min
BRISC; di-Ub-TAMRA 250 nM, inhibitor 781 nM
  Initial velocity (FU/min): 548.6 FU/min and 487.2 FU/min and 518.3 FU/min
BRISC; di-Ub-TAMRA 250 nM, inhibitor 3.12 μM
  Initial velocity (FU/min): 309.4 FU/min and 322.6 FU/min and 305.6 FU/min
BRISC; di-Ub-TAMRA 250 nM, inhibitor 12.5 μM
  Initial velocity (FU/min): 178.9 FU/min and 174 FU/min and 179.5 FU/min
BRISC; di-Ub-TAMRA 250 nM, inhibitor 50 μM
  Initial velocity (FU/min): 67.25 FU/min and 84.89 FU/min and 62.1 FU/min
BRISC; di-Ub-TAMRA 500 nM, inhibitor 48 nM
  Initial velocity (FU/min): 1729 FU/min and 1553 FU/min and 1273 FU/min
BRISC; di-Ub-TAMRA 500 nM, inhibitor 195 nM
  Initial velocity (FU/min): 1442 FU/min and 1370 FU/min and 1434 FU/min
BRISC; di-Ub-TAMRA 500 nM, inhibitor 781 nM
  Initial velocity (FU/min): 1085 FU/min and 985.1 FU/min and 1129 FU/min
BRISC; di-Ub-TAMRA 500 nM, inhibitor 3.12 μM
  Initial velocity (FU/min): 624.9 FU/min and 642.2 FU/min and 551.1 FU/min
BRISC; di-Ub-TAMRA 500 nM, inhibitor 12.5 μM
  Initial velocity (FU/min): 332.6 FU/min and 297.9 FU/min and 255.2 FU/min
BRISC; di-Ub-TAMRA 500 nM, inhibitor 50 μM
  Initial velocity (FU/min): 109.3 FU/min and 143.3 FU/min and 196.9 FU/min
BRISC; di-Ub-TAMRA 1000 nM, inhibitor 48 nM
  Initial velocity (FU/min): 2734 FU/min and 2460 FU/min and 2836 FU/min
BRISC; di-Ub-TAMRA 1000 nM, inhibitor 195 nM
  Initial velocity (FU/min): 2231 FU/min and 2296 FU/min and 2566 FU/min
BRISC; di-Ub-TAMRA 1000 nM, inhibitor 781 nM
  Initial velocity (FU/min): 1629 FU/min and 1647 FU/min and 1858 FU/min
BRISC; di-Ub-TAMRA 1000 nM, inhibitor 3.12 μM
  Initial velocity (FU/min): 1134 FU/min
BRISC; di-Ub-TAMRA 1000 nM, inhibitor 50 μM
  Initial velocity (FU/min): 213.3 FU/min and 360.7 FU/min and 415.9 FU/min
BRISC; enzyme activity at different substrate concentrations
  mode of inhibition: not competitive inhibitors
